Patent publication US10660877B2 (BRISTOL-MYERS SQUIBB COMPANY, priority 2016, dated 2020)
pIC50: −log10 of the molar value. Where two headings read alike, the source gives them in different places.

What was measured:
human TLR8 = human TLR8 (Homo sapiens (Human), UniProt Q9NR97); experiment: TLR8 inhibition reporter assay (HEK-Blue cells, SEAP reporter, R848 stimulation);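 also: compounds tested from 0.05 nM to 50 µM, 22 h at 37 °C, SEAP measured with HEK-Blue Detection, inhibition relative to agonist plus DMSO versus a known inhibitor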
Chain of human TLR8 (Q9NR97 27-1041): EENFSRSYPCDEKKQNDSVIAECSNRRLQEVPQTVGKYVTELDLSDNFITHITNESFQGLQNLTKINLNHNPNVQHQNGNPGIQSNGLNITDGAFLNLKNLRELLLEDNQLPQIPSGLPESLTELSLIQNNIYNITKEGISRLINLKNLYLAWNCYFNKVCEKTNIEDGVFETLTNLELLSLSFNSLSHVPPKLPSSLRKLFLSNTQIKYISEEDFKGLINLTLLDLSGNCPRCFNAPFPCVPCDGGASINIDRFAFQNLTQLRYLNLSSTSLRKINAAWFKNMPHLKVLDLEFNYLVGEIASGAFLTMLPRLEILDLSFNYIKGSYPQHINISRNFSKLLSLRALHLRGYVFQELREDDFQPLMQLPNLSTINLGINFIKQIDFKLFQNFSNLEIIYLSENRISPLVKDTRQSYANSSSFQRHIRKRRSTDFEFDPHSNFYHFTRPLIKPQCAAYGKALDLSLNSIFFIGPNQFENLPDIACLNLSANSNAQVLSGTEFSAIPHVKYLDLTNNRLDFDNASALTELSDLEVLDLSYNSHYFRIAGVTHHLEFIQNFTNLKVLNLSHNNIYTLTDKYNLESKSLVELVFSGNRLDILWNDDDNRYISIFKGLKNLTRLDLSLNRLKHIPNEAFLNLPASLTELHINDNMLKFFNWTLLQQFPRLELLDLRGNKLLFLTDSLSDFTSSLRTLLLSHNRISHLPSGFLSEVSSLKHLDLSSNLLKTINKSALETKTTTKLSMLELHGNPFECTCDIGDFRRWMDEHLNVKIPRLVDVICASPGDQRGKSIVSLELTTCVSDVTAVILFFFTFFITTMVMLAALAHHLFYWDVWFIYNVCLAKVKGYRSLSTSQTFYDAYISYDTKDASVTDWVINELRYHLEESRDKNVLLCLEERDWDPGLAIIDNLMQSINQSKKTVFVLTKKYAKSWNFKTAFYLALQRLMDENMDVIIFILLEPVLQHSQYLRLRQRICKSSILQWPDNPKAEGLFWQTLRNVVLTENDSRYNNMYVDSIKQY

TLR7 = experiment: In vivo mouse TLR7 PD model (gardiquimod challenge, plasma IL-6); parameters: species or system C57BL/6 mice; details: oral
Method: In Vivo Mouse TLR7 and TLR9 PD Model:
Adult male C57BL/6 mice were used for the experiments. Mice (7 to 10 per group) were randomized into different treatment groups based on body weight. Mice from the respective treatment groups were administered orally with vehicle or test compound. Thirty min after the oral administration of vehicle or test compound, mice were challenged with intraperitoneal injection of gardiquimod for TLR7 PD model and CpG-ODN for TLR9 PD model. Ninety minutes after gardiquimod injection and 120 minutes after CpG-ODN injection, mice were bled under isoflurane anaesthesia and plasma IL-6 level was estimated by using commercially available ELISA kit (BD Biosciences). At the end of experiment, mean cytokine data was plotted and one way ANOVA with Dunnett's test was performed to calculate the significance of test compound treated group vs. vehicle control group. Percent inhibition of cytokine induction was calculated for test compound treated group vs vehicle control group.

human TLR9 = human TLR9 (Homo sapiens (Human), UniProt Q9NR96); experiment: TLR9 inhibition reporter assay (HEK-Blue cells, SEAP reporter, ODN2006 stimulation);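 also: compounds tested over 0.05 nM to 50 µM, 22 h incubation, inhibition taken as SEAP signal drop from agonist plus DMSO wells toward a known inhibitor control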
Chain of human TLR9 (Q9NR96 26-1032): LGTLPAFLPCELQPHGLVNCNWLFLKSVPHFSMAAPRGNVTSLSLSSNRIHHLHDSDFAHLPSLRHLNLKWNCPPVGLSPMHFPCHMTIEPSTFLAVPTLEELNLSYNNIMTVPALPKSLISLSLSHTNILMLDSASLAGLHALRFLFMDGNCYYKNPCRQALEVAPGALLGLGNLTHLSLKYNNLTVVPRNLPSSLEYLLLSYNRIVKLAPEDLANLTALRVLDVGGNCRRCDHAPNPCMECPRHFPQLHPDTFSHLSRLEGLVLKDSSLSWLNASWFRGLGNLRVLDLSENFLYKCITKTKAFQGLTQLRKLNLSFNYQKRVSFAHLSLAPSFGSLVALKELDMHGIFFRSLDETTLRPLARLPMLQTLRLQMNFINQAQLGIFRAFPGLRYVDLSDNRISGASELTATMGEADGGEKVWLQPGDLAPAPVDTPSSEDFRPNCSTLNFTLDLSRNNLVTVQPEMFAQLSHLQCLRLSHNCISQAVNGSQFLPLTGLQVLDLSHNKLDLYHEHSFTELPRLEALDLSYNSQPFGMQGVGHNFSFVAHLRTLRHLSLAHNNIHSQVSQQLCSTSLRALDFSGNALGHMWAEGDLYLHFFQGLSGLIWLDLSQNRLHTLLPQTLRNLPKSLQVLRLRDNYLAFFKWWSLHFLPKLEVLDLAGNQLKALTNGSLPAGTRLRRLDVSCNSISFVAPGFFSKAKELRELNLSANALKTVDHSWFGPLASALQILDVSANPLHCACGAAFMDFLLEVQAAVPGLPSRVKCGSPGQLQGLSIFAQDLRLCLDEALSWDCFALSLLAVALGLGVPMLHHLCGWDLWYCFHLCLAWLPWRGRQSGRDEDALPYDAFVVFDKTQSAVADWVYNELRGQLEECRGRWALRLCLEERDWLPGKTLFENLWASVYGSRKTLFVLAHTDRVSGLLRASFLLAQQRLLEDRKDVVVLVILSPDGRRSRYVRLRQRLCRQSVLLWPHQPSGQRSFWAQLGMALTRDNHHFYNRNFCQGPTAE
Method: TLR7/8/9 Inhibition Reporter Assays
Briefly, cells are seeded into Greiner 384 well plates (15000 cells per well for TLR7, 20,000 for TLR8 and 25,000 for TLR9) and then treated with test compounds in DMSO to yield a final dose response concentration range of 0.05 nM-50 μM. […] After a 22 hour incubation at 37° C., 5% CO2, SEAP levels are determined with the addition of HEK-Blue™ Detection reagent (Invivogen), a cell culture medium that allows for detection of SEAP, according to manufacturer's specifications. The percent inhibition is determined as the % reduction in the HEK-Blue signal present in wells treated with agonist plus DMSO alone compared to wells treated with a known inhibitor.

human TLR7 = human TLR7 (Homo sapiens (Human), UniProt Q9NYK1); experiment: TLR7 inhibition reporter assay (HEK-Blue cells, SEAP reporter, gardiquimod stimulation); format: cell-based
Chain of human TLR7 (Q9NYK1 27-1049): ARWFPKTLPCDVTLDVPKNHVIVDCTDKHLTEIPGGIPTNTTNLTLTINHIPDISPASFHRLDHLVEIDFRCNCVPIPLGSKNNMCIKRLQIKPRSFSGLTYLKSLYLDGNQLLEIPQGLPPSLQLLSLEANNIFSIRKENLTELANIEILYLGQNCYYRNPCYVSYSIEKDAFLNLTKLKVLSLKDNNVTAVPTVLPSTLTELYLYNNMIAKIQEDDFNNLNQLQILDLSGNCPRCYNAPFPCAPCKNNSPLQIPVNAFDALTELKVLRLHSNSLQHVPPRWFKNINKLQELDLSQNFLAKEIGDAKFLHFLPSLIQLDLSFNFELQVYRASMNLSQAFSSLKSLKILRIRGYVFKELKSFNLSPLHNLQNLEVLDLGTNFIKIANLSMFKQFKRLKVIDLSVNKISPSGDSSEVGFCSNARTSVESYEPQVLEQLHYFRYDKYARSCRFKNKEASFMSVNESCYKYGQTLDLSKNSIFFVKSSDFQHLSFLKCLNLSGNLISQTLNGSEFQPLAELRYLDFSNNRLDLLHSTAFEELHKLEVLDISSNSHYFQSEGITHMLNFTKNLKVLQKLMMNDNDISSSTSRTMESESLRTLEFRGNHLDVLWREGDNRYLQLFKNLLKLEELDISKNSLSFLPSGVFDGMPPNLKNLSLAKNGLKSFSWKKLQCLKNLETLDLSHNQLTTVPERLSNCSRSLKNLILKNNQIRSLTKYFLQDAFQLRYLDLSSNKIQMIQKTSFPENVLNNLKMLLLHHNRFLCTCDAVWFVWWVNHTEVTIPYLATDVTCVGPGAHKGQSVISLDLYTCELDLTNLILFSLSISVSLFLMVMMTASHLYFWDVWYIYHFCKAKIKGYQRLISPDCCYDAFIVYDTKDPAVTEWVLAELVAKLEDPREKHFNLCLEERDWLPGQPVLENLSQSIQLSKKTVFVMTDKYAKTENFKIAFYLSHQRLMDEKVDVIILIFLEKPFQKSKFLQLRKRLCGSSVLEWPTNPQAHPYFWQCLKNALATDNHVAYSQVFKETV

[1] = read-out: TLR8 IC50, HEK-Blue cells, R848 15.9 μM
[2] = read-out: TLR9 IC50, HEK-Blue cells, ODN2006 5 nM
[3] = HEK-Blue cells, gardiquimod 7.5 μM

Structure (SMILES) | pIC50 (human TLR8; [1]) | pIC50 (human TLR9; [2]) | pIC50 (human TLR7; [3]) | further results
Cc1cc(-c2[nH]c3ccc(C4CCN(CC(=O)N(C)C)CC4)cc3c2C(C)C)cc(C)n1 [Example 308, 2-(4-(2-(2,6-dimethylpyridin-4-yl)-3-isopropyl-1H-indol-5-yl)piperidin-1-yl)-N,N-dimethylacetamide] | – | – | – | pIC50 (human TLR8; read-out: TLR8 IC50, HEK-Blue cells overexpressing human TLR8, R848 15.9 μM): 8.37; % inhibition of IL6 (TLR7; 0.002 mg/kg): 30%; % inhibition of IL6 (TLR7; 0.008 mg/kg): 47%; % inhibition of IL6 (TLR7; 0.032 mg/kg): 81%; % inhibition of IL6 (TLR7; 0.160 mg/kg): 98%; pIC50 (human TLR9; read-out: TLR9 IC50, HEK-Blue cells overexpressing human TLR9, ODN2006 5 nM): 6.44; pIC50 (human TLR7; HEK-Blue cells overexpressing human TLR7, gardiquimod 7.5 μM): 8.82
Cc1cc(-c2[nH]c3ccc(C4CCN(C(=O)C(=O)O)CC4)cc3c2C(C)C)cc(C)n1 [Example 859, 2-(4-(2-(2,6-dimethylpyridin-4-yl)-3-isopropyl-1H-indol-5-yl)piperidin-1-yl)-2-oxoacetic acid] | 6.27 | < 4.30 | 7.36 | –
Cc1cc(-c2[nH]c3ccc(C4CCN(C(=O)C(=O)NCCc5ccncc5)CC4)cc3c2C(C)C)cc(C)n1 [Example 860, 2-(4-(2-(2,6-dimethylpyridin-4-yl)-3-isopropyl-1H-indol-5-yl)piperidin-1-yl)-2-oxo-N-(2-(pyridin-4-yl)ethyl)acetamide] | 7.05 | 4.81 | 8.01 | –
Cc1cc(-c2[nH]c3ccc(C4CCN(C(=O)C(=O)NCC5CCNCC5)CC4)cc3c2C(C)C)cc(C)n1 [Example 861, 2-(4-(2-(2,6-dimethylpyridin-4-yl)-3-isopropyl-1H-indol-5-yl)piperidin-1-yl)-2-oxo-N-(piperidin-4-ylmethyl)acetamide] | 7.23 | 5.47 | 7.87 | –
Cc1cc(-c2[nH]c3ccc(C4CCN(C=O)CC4)cc3c2C(C)C)cc(C)n1 [Example 862, 4-(2-(2,6-dimethylpyridin-4-yl)-3-isopropyl-1H-indol-5-yl)piperidine-1-carbaldehyde] | 6.92 | < 4.30 | 8.29 | –
CCc1c(-c2ccnc(C)c2)[nH]c2ccc(C3CCN(CCC(F)(F)F)CC3)cc12 [Example 863, 3-ethyl-2-(2-methylpyridin-4-yl)-5-(1-(3,3,3-trifluoropropyl)piperidin-4-yl)-1H-indole] | 7.28 | 5.61 | 6.33 | –
Cc1cc(-c2[nH]c3cc(C(F)(F)F)c(C4CCN(CC5CCNC5)CC4)cc3c2C(C)C)ccn1 (stereo not shown) [Example 873, 3-isopropyl-2-(2-methylpyridin-4-yl)-5-(1-(pyrrolidin-3-ylmethyl)piperidin-4-yl)-6-(trifluoromethyl)-1H-indole] | 6.33 | 7.02 | 7.87 | –
Cc1cc(-c2[nH]c3ccc(C4CCN(CC(=O)O)CC4)cc3c2C(C)C)cc(C)n1 [Example 875, 2-(4-(2-(2,6-dimethylpyridin-4-yl)-3-isopropyl-1H-indol-5-yl)piperidin-1-yl)acetic acid] | 6.60 | 5.00 | 7.51 | –
CCc1c(-c2ccnc(C)c2)[nH]c2ccc(C3CCN(CC(=O)O)CC3)cc12 [Example 876, 2-(4-(3-ethyl-2-(2-methylpyridin-4-yl)-1H-indol-5-yl)piperidin-1-yl)acetic acid] | 5.71 | 4.33 | 6.02 | –
Cc1cc(-c2[nH]c3ccc(C4CCN(C(=O)C(=O)N(C)C)CC4)cc3c2C(C)C)ccn1 [Example 878, 2-(4-(3-isopropyl-2-(2-methylpyridin-4-yl)-1H-indol-5-yl)piperidin-1-yl)-N,N-dimethyl-2-oxoacetamide] | 6.76 | 4.55 | 7.26 | –
CNC(=O)C(=O)N1CCC(c2ccc3[nH]c(-c4ccnc(C)c4)c(C(C)C)c3c2)CC1 [Example 879, 2-(4-(3-isopropyl-2-(2-methylpyridin-4-yl)-1H-indol-5-yl)piperidin-1-yl)-N-methyl-2-oxoacetamide] | 6.77 | < 4.30 | 7.43 | –

Second part, led by results:

pIC50 (human TLR8; [1]) | pIC50 (human TLR9; [2]) | pIC50 (human TLR7; [3]) | Structure (SMILES) | further results
7.51 | 6.08 | 8.54 | Cc1cc(-c2[nH]c3ccc(C4CCN(C(=O)C(=O)N5CCN(C)CC5)CC4)cc3c2C(C)C)cc(C)n1 [Example 856, 1-(4-(2-(2,6-dimethylpyridin-4-yl)-3-isopropyl-1H-indol-5-yl)piperidin-1-yl)-2-(4-methylpiperazin-1-yl)ethane-1,2-dione] | –
7.87 | 6.36 | 8.89 | Cc1cc(-c2[nH]c3ccc(C4CCN(C(=O)C(=O)N5CCNCC5)CC4)cc3c2C(C)C)cc(C)n1 [Example 857, 1-(4-(2-(2,6-dimethylpyridin-4-yl)-3-isopropyl-1H-indol-5-yl)piperidin-1-yl)-2-(piperazin-1-yl)ethane-1,2-dione] | –
8.24 | 6.28 | 8.72 | Cc1cc(-c2[nH]c3ccc(C4CCN(C(=O)C(=O)N(C)CCN(C)C)CC4)cc3c2C(C)C)cc(C)n1 [Example 858, N-(2-(dimethylamino)ethyl)-2-(4-(2-(2,6-dimethylpyridin-4-yl)-3-isopropyl-1H-indol-5-yl)piperidin-1-yl)-N-methyl-2-oxoacetamide] | –
7.97 | 6.04 | 7.78 | Cc1cc(-c2[nH]c3ccc(C4CCN(C(C)CF)CC4)cc3c2C(C)C)ccn1 (stereo not shown) [Example 864, 5-(1-(1-fluoropropan-2-yl)piperidin-4-yl)-3-isopropyl-2-(2-methylpyridin-4-yl)-1H-indole] | –
7.55 | 5.99 | 7.44 | Cc1cc(-c2[nH]c3ccc(C4CCN(C(CF)CF)CC4)cc3c2C(C)C)ccn1 [Example 865, 5-(1-(1,3-difluoropropan-2-yl)piperidin-4-yl)-3-isopropyl-2-(2-methylpyridin-4-yl)-1H-indole] | –
7.91 | 5.77 | 7.42 | Cc1cc(-c2[nH]c3ccc(C4CCN(CC5CC5)CC4)cc3c2C(C)C)ccn1 [Example 866, 5-(1-(cyclopropylmethyl)piperidin-4-yl)-3-isopropyl-2-(2-methylpyridin-4-yl)-1H-indole] | –
8.43 | 6.10 | 7.79 | Cc1cc(-c2[nH]c3ccc(C4CCN(CC5(C)COC5)CC4)cc3c2C(C)C)ccn1 [Example 867, 3-isopropyl-5-(1-((3-methyloxetan-3-yl)methyl)piperidin-4-yl)-2-(2-methylpyridin-4-yl)-1H-indole] | –
7.47 | 6.03 | 7.27 | Cc1cc(-c2[nH]c3ccc(C4CCN(CC5CCCCC5)CC4)cc3c2C(C)C)ccn1 [Example 868, 5-(1-(cyclohexylmethyl)piperidin-4-yl)-3-isopropyl-2-(2-methylpyridin-4-yl)-1H-indole] | –
7.91 | 6.10 | 7.88 | Cc1cc(-c2[nH]c3ccc(C4CCN(C(C)C)CC4)cc3c2C(C)C)ccn1 [Example 869, 3-isopropyl-5-(1-isopropylpiperidin-4-yl)-2-(2-methylpyridin-4-yl)-1H-indole] | –
8.39 | 5.84 | 7.71 | Cc1cc(-c2[nH]c3ccc(C4CCN(C(C)CF)CC4)cc3c2C(C)C)c(C)cn1 (stereo not shown) [Example 870, 2-(2,5-dimethylpyridin-4-yl)-5-(1-(1-fluoropropan-2-yl)piperidin-4-yl)-3-isopropyl-1H-indole] | –
8.49 | 5.74 | 8.00 | Cc1cc(-c2[nH]c3ccc(C4CCN(CC5CC5)CC4)cc3c2C(C)C)c(C)cn1 [Example 871, 5-(1-(cyclopropylmethyl)piperidin-4-yl)-2-(2,5-dimethylpyridin-4-yl)-3-isopropyl-1H-indole] | –
8.55 | 5.64 | 7.69 | Cc1cc(-c2[nH]c3ccc(C4CCN(CC5(C)COC5)CC4)cc3c2C(C)C)c(C)cn1 [Example 872, 2-(2,5-dimethylpyridin-4-yl)-3-isopropyl-5-(1-((3-methyloxetan-3-yl)methyl)piperidin-4-yl)-1H-indole] | –
7.47 | 6.35 | 7.81 | Cc1cc(-c2[nH]c3ccc(C4CCN(CC5CCN(C(C)C)CC5)CC4)c(F)c3c2C(C)C)ccn1 [Example 874, 4-fluoro-3-isopropyl-5-(1-((1-isopropylpiperidin-4-yl)methyl)piperidin-4-yl)-2-(2-methylpyridin-4-yl)-1H-indole] | –
8.54 | 7.80 | 7.51 | CCc1c(-c2ccnc(C)c2)[nH]c2ccc(C3CCN(CC(O)CN(C)C(C)C)CC3)cc12 (stereo not shown) [Example 877, 1-(4-(3-ethyl-2-(2-methylpyridin-4-yl)-1H-indol-5-yl)piperidin-1-yl)-3-(isopropyl(methyl)amino)propan-2-ol] | –
